Assay results taken from patent US8338486B2, “Methods for the treatment of CNS-related conditions” (Adamas Pharmaceuticals, Inc., priority 2004, dated 2012).

Experiments:
[1] = Release profile (cumulative fraction released; USP II Paddle system, water); format: physicochemical; conditions: memantine-galantamine combination
From the text: The cumulative fraction is the amount of drug substance released from the formulation matrix to the serum or gut environment (e.g., U.S. Pat. No. 4,839,177) or as measured with a USP II Paddle system using water as the dissolution medium.

[2] = cited from earlier work; for Tmax / Human PK T½: humans
[3] = humans; cited from earlier work

Structure (SMILES)	cum. fraction ([1]; Time 1)	cum. fraction ([1]; Time 2)	cum. fraction ([1]; Time 4)	cum. fraction ([1]; Time 8)	cum. fraction ([1]; Time 12)	cum. fraction ([1]; Time 16)	cum. fraction ([1]; Time 20)	cum. fraction ([1]; Time 24)	Tmax [2]	Main Dose-Dependent Adverse Event [3]	T½ ([2]; head of Table 4)	Human PK T½ [2]	Dose Dependent Tox [3]
CC12CC3CC(C)(C1)CC(N)(C3)C2 [Memantine, 1-amino-3,5-dimethyladamantane]	0.2	0.3	0.4	0.5	0.6	0.7	0.8	0.9	–	–	–	–	–
CCN(C)C(=O)Oc1cccc([C@H](C)N(C)C)c1 [EXELON ®/Rivastigmine]	–	–	–	–	–	–	–	–	1 to 2.5 h	Nausea, vomiting	–	–	–
COc1ccc2c3c1O[C@H]1C[C@@H](O)C=C[C@@]31CCN(C)C2 [REMINYL ®/Galantamine]	0.2	0.3	0.4	0.5	0.6	0.7	0.8	1.0	1 to 2.5 h	–	T½ = 7 hrs	7 h	–
C/C=C1\[C@H]2C=C(C)C[C@]1(N)c1ccc(=O)[nH]c1C2 [HUPERZINE-A]	–	–	–	–	–	–	–	–	1.3 h	–	–	4.8 h	–
CC(N)C12CC3CC(CC(C3)C1)C2 (stereo not drawn) [Rimantadine, 1-(1-aminoethyl)adamantane]	–	–	–	–	–	–	–	–	–	–	–	–	Insomnia
